In publication PMC4882222 (Journal of medicinal chemistry, 2016):
Where two headings read alike, the source gives them in different places.

How the values were obtained:
[1] = biological target: HIV RT-associated RNase H (Human immunodeficiency virus type 1 group M subtype B, UniProt P04585); type: biochemical, HIV-1
[2] = biological target: HIV RT polymerase (Human immunodeficiency virus type 1 group M subtype B, UniProt P04585); assay: RT polymerase assay; type: biochemical, HIV-1
[3] = biological target: HIV integrase (Human immunodeficiency virus type 1 group M subtype B, UniProt P04585); assay: HIV IN strand transfer assay; type: biochemical
[4] = RNH IC50 HTS-2, HTS-2 substrate, measures DNA 3' end directed cleavage
[5] = RNH IC50 HTS-3, HTS-3 substrate, measures RNA 5' end directed cleavage
[6] = RT RNase H IC50, Table 4, data with HTS-1 as substrate

| SMILES | IC50 [1, 4] [µM] | IC50 [1, 5] [µM] | IC50 [1, 6] [µM] | IC50 [2] [µM] | RT Pol IC50 ([2]; Table 1, poly(rA)-oligo(dT)16, [3H]-TTP) | IC50 ([2]; read-out: RT Pol IC50, Table 4) [µM] | IC50 [3] [µM] |
| --- | --- | --- | --- | --- | --- | --- | --- |
| O=C(O)c1c[nH]cc(O)c1=O [10a, 5-Hydroxy-4-oxo-1,4-dihydropyridine-3-carboxylic acid] | > 25 | > 25 | > 25 | > 25 | no inhibitory activity | > 25 | > 100 |
| O=C(O)c1cn(-c2ccccc2)cc(O)c1=O [10b, 5-Hydroxy-4-oxo-1-phenyl-1,4-dihydropyridine-3-carboxylic acid] | > 25 | > 25 | > 25 | > 25 |  | > 25 |  |
| O=C(O)c1cn(Cc2ccccc2)cc(O)c1=O [10c, 1-Benzyl-5-hydroxy-4-oxo-1,4-dihydropyridine-3-carboxylic acid] | > 25 | > 25 | > 25 | > 25 |  | > 25 |  |
| O=C(O)c1cn(Cc2ccc(F)cc2)cc(O)c1=O [10d, 1-(4-Fluorobenzyl)-5-hydroxy-4-oxo-1,4-dihydropyridine-3-carboxylic acid] | > 25 | > 25 |  | > 25 |  | > 25 |  |
| CC(c1ccc(F)cc1)n1cc(O)c(=O)c(C(=O)O)c1 (centres unmarked) [10e, 1-(1-(4-Fluorophenyl)ethyl)-5-hydroxy-4-oxo-1,4-dihydropyridine-3-carboxylic acid] | > 25 | > 25 |  | > 25 |  | > 25 |  |
| Cc1cc(Cn2cc(O)c(=O)c(C(=O)O)c2)ccc1F [10f, 1-(4-Fluoro-3-methylbenzyl)-5-hydroxy-4-oxo-1,4-dihydropyridine-3-carboxylic acid] | > 25 | > 25 |  | > 25 |  | > 25 | > 100 |
| O=C(O)c1cn(Cc2ccc(F)cc2F)cc(O)c1=O [10g, 1-(2,4-Difluorobenzyl)-5-hydroxy-4-oxo-1,4-dihydropyridine-3-carboxylic acid] | > 25 | > 25 |  | > 25 |  | > 25 | > 100 |
| O=C(O)c1cn(Cc2ccc(Cl)c(Cl)c2)cc(O)c1=O [10i, 1-(3,4-Dichlorobenzyl)-5-hydroxy-4-oxo-1,4-dihydropyridine-3-carboxylic acid] | > 25 | > 25 |  | > 25 |  | > 25 |  |
| O=C(O)c1cn(Cc2ccc(Cl)cc2Cl)cc(O)c1=O [10j, 1-(2,4-Dichlorobenzyl)-5-hydroxy-4-oxo-1,4-dihydropyridine-3-carboxylic acid] | > 25 | > 25 |  | > 25 |  | > 25 |  |
| O=C(O)c1cn(Cc2ccc(F)c(Cl)c2)cc(O)c1=O [10k, 1-(3-Chloro-4-fluorobenzyl)-5-hydroxy-4-oxo-1,4-dihydropyridine-3-carboxylic acid] | > 25 | > 25 |  | > 25 |  | > 25 |  |
| O=C(O)c1cn(Cc2ccc(Br)cc2)cc(O)c1=O [10l, 1-(4-Bromobenzyl)-5-hydroxy-4-oxo-1,4-dihydropyridine-3-carboxylic acid] | > 25 | > 25 | > 25 | > 25 |  | > 25 | > 100 |
| O=C(O)c1cn(Cc2ccncc2)cc(O)c1=O [10n, 5-Hydroxy-4-oxo-1-(pyridin-4-ylmethyl)-1,4-dihydropyridine-3-carboxylic acid] | > 25 | > 25 | > 25 | > 25 |  | > 25 | > 100 |
| CS(=O)(=O)c1ccc(Cn2cc(O)c(=O)c(C(=O)O)c2)cc1 [10o, 5-Hydroxy-1-(4-(methylsulfonyl)benzyl)-4-oxo-1,4-dihydropyridine-3-carboxylic acid] | > 25 | > 25 | > 25 | > 25 |  | > 25 |  |
| O=C(O)c1ccc(Cn2cc(O)c(=O)c(C(=O)O)c2)cc1 [10p, 1-(4-Carboxybenzyl)-5-hydroxy-4-oxo-1,4-dihydropyridine-3-carboxylic acid] | > 25 | > 25 | > 25 | > 25 |  | > 25 |  |
| NS(=O)(=O)c1ccc(-c2ccc(Cn3cc(O)c(=O)c(C(=O)O)c3)cc2)cc1 [10y, 5-Hydroxy-4-oxo-1-((4'-sulfamoyl-[1,1'-biphenyl]-4-yl)methyl)-1,4-dihydropyridine-3-carboxylic acid] |  |  |  |  |  |  | > 100 |
| CCOC(=O)c1cn(Cc2ccc(F)cc2)cc(O)c1=O [compound 18, Ethyl-1-(4-fluorobenzyl)-5-hydroxy-4-oxo-1,4-dihydropyridine-3-carboxylate] | > 25 | > 25 | > 25 | > 25 |  | > 25 | > 100 |
| NC(=O)c1cn(Cc2ccc(F)cc2)cc(O)c1=O [compound 20, 1-(4-Fluorobenzyl)-5-hydroxy-4-oxo-1,4-dihydropyridine-3-carboxamide] | > 25 | > 25 |  | > 25 |  | > 25 |  |
